Laboratory results taken from patent US4410516A, “1-N(αHydroxy-ω-aminoalkanoyl) derivatives of 5,3',4'-trideoxy- or 5,3', 4'-trideoxy-6'-N- methyl- or 5, 3', 4',6"-tetradeoxykannamyci B and production thereof” (Zaidan Hojin Biseibutsu Kagaku Kenkyu Kai, priority 1981, dated 1983).
Where two headings read alike, the source gives them in different places.

How the values were obtained:
[1] = system: Pseudomonas aeruginosa ROS134/PU21; assay: Minimum inhibitory concentration, serial dilution on nutrient agar; assay type: cell-based; conditions: ROS134/PU21, 18 h
[2] = system: Pseudomonas aeruginosa 21-75; assay: as above; assay type: cell-based; conditions: 2175, 37° C., 18 hours incubation
Providencia 2991 = assay: as above; assay type: cell-based; conditions: 37° C., 18 hours incubation
[3] = system: Shigella dysenteriae JS 11910; assay: as above; assay type: cell-based; conditions: JS11910, 18 h
Proteus vulgaris OX19 = assay: as above; assay type: cell-based; conditions: 37° C., 18 hours incubation
[4] = system: Salmonella enteritidis 1891; assay: as above; assay type: cell-based; conditions: Salmonella enterica
[5] = system: Staphylococcus aureus AP01; assay: as above; assay type: cell-based; conditions: 37° C., 18 hours incubation
Serratia SOU = assay: as above; assay type: cell-based; conditions: 37° C., 18 hours incubation
Bacillus anthracis = assay: microbe, parasite or virus in culture; assay type: cell-based; conditions: 18 h
Escherichia coli K-12 = assay: Minimum inhibitory concentration, serial dilution on nutrient agar; assay type: cell-based; conditions: K12, nutrient agar, 37° C., 18 hours incubation, read-out: MIC
[6] = system: Escherichia coli K-12 ML 1410; assay: as above; assay type: cell-based; conditions: K12ML1410, 18 h
Salmonella typhi T-63 = assay: as above; assay type: cell-based; conditions: Salmonella enterica, 18 h
[7] = system: Pseudomonas aeruginosa B-13; assay: as above; assay type: cell-based; conditions: B13, 37° C., 18 hours incubation
[8] = system: Escherichia coli K-12 LA 290 R56; assay: as above; assay type: cell-based; conditions: K12LA290R56, 18 h
[9] = system: Pseudomonas aeruginosa A3; assay: as above; assay type: cell-based; conditions: 37° C., 18 hours incubation
[10] = system: Escherichia coli K-12 ML 1629; assay: as above; assay type: cell-based; conditions: K12ML1629, nutrient agar, 37° C., 18 hours incubation, read-out: MIC
[11] = system: Escherichia coli K-12 LA 290 R64; assay: as above; assay type: cell-based; conditions: K12LA290R64, 18 h
[12] = Acute toxicity by intravenous injection in mice; conditions: mouse, in vivo
[13] = system: Escherichia coli K-12 R 388; assay: Minimum inhibitory concentration, serial dilution on nutrient agar; assay type: cell-based; conditions: K12R388, 18 h
[14] = system: Pseudomonas aeruginosa 99; assay: as above; assay type: cell-based
[15] = system: Mycobacterium smegmatis ATCC 607; assay: as above; assay type: cell-based; conditions: Mycolicibacterium smegmatis, ATCC607; nutrient agar, 37° C., 18 hours incubation; read-out: MIC
[16] = system: Micrococcus flavus FDA 16; assay: as above; assay type: cell-based
Providencia Pv 16 = assay: as above; assay type: cell-based; conditions: PV16, 37° C., 18 hours incubation
Escherichia coli NIHJ = assay: as above; assay type: cell-based; conditions: nutrient agar, 37° C., 18 hours incubation, read-out: MIC
[17] = system: Staphylococcus aureus 209P; assay: as above; assay type: cell-based; conditions: 37° C., 18 hours incubation
[18] = system: Pseudomonas aeruginosa PST1; assay: as above; assay type: cell-based; conditions: PST1, nutrient agar, 37° C., 18 hours incubation, read-out: MIC
[19] = system: Staphylococcus epidermidis 109; assay: as above; assay type: cell-based; conditions: Staphylococcus epidermidis, 109; nutrient agar, 37° C., 18 hours incubation; read-out: MIC
Sarcina lutea PCI 1001 = assay: as above; assay type: cell-based; conditions: Micrococcus luteus
[20] = system: Pseudomonas aeruginosa No. 12; assay: as above; assay type: cell-based
[21] = system: Klebsiella pneumoniae 22 #3038; assay: as above; assay type: cell-based
Proteus rettgeri GN311 = assay: as above; assay type: cell-based; conditions: Providencia rettgeri, 37° C., 18 hours incubation
[22] = system: Pseudomonas aeruginosa GN315; assay: as above; assay type: cell-based
Serratia marcescens = assay: as above; assay type: cell-based; conditions: 37° C., 18 hours incubation
Escherichia coli W677 = assay: as above; assay type: cell-based
[23] = system: Klebsiella pneumoniae PCI 602; assay: as above; assay type: cell-based
Escherichia coli JR255 = assay: as above; assay type: cell-based; conditions: JR255, nutrient agar, 37° C., 18 hours incubation, read-out: MIC
Escherichia coli K-12 R5 = assay: as above; assay type: cell-based; conditions: K12R5, 18 h
Serratia 4 = assay: as above; assay type: cell-based; conditions: 37° C., 18 hours incubation
[24] = system: Escherichia coli K-12 LA 290 R55; assay: as above; assay type: cell-based; conditions: K12LA290R55, 18 h
[25] = system: Bacillus cereus ATCC 10702; assay: as above; assay type: cell-based
[26] = system: Pseudomonas aeruginosa TI-13; assay: as above; assay type: cell-based
[27] = system: Pseudomonas aeruginosa H9; assay: as above; assay type: cell-based; conditions: H9, 18 h
[28] = PCI1001, nutrient agar, 37° C., 18 hours incubation, read-out: MIC
[29] = NO.12, nutrient agar, 37° C., 18 hours incubation, read-out: MIC
[30] = W677, nutrient agar, 37° C., 18 hours incubation, read-out: MIC
[31] = PCI602, nutrient agar, 37° C., 18 hours incubation, read-out: MIC
[32] = ATCC10702, nutrient agar, 37° C., 18 hours incubation, read-out: MIC
[33] = nutrient agar, 37° C., 18 hours incubation, read-out: MIC
[34] = Pseudomonas aeruginosa, 99, 18 h

C[C@H]1O[C@H](O[C@@H]2C[C@H](O[C@H]3O[C@H](CN)CC[C@H]3N)[C@@H](N)C[C@H]2NC(=O)[C@@H](O)CCN)[C@H](O)[C@@H](N)[C@@H]1O [AHB-tetradeoxyKMB, 1-N-[(S)-4-amino-2-hydroxybutyryl]-5,3',4',6"-tetradeoxykanamycin B]
< 0.2 µg/mL: MIC (Bacillus anthracis) | MIC [15] | MIC [17]
25 µg/mL: MIC (Providencia 2991) | MIC (Salmonella typhi T-63) | MIC (Providencia Pv 16) | MIC (Proteus rettgeri GN311) | MIC (Serratia marcescens) | MIC (Serratia 4)
25 to 50 mg/kg: LD50 [12]
12.5 µg/mL: MIC [2] | MIC [7]
0.78 µg/mL: MIC [5] | MIC (Escherichia coli K-12) | MIC [9] | MIC [10] | MIC [11] | MIC (Escherichia coli NIHJ) | MIC [19] | MIC (Sarcina lutea PCI 1001; [28]) | MIC (Escherichia coli W677; [30]) | MIC [23, 31] | MIC (Escherichia coli JR255)
100 µg/mL: MIC [1] | MIC (Serratia SOU) | MIC ([22]; GN315, nutrient agar, 37° C., 18 hours incubation, read-out: MIC)
6.25 µg/mL: MIC ([14]; Pseudomonas aeruginosa, 99, nutrient agar, 37° C., 18 hours incubation, read-out: MIC) | MIC ([16]; FDA16, nutrient agar, 37° C., 18 hours incubation, read-out: MIC) | MIC [18] | MIC [20, 29]
1.56 µg/mL: MIC [3] | MIC [6] | MIC ([21]; 18 h) | MIC [24]
3.13 µg/mL: MIC ([4]; 18 h) | MIC ([26]; TI13, 18 h) | MIC [27]
0.39 µg/mL: MIC (Proteus vulgaris OX19) | MIC [8] | MIC [13] | MIC [25, 32]
50 µg/mL: MIC (Escherichia coli K-12 R5)

CNC[C@@H]1CC[C@@H](N)[C@@H](O[C@H]2C[C@@H](O[C@H]3O[C@H](CO)[C@@H](O)[C@H](N)[C@H]3O)[C@H](NC(=O)[C@@H](O)CCN)C[C@@H]2N)O1 [AHB-trideoxyMKMB, 1-N-[(S)-4-amino-2-hydroxybutyryl]-5,3',4'-trideoxy-6'-N-methylkanamycin B]
50 to 100 mg/kg: LD50 [12]
12.5 µg/mL: MIC [2] | MIC (Providencia 2991) | MIC [7] | MIC [18]
6.25 µg/mL: MIC (Providencia Pv 16) | MIC (Serratia marcescens) | MIC (Serratia 4)
3.13 µg/mL: MIC [14, 34] | MIC ([22]; GN315, 18 h) | MIC (Escherichia coli K-12 R5)
< 0.2 µg/mL: MIC (Proteus vulgaris OX19) | MIC (Bacillus anthracis) | MIC [15] | MIC [17] | MIC [19]
25 µg/mL: MIC (Serratia SOU)
50 µg/mL: MIC [1] | MIC (Proteus rettgeri GN311)
0.39 µg/mL: MIC [5] | MIC [13] | MIC (Sarcina lutea PCI 1001; [28]) | MIC [25, 32]
0.78 µg/mL: MIC [4, 33] | MIC (Escherichia coli K-12) | MIC [8] | MIC [10] | MIC (Escherichia coli NIHJ) | MIC [23, 31] | MIC (Escherichia coli JR255)
1.56 µg/mL: MIC [3] | MIC [6] | MIC (Salmonella typhi T-63) | MIC [11] | MIC ([16]; FDA16, 18 h) | MIC ([20]; NO.12, 18 h) | MIC ([21]; 18 h) | MIC (Escherichia coli W677; W677, 18 h) | MIC [24] | MIC ([26]; TI13, 18 h) | MIC [27]

NCC[C@H](O)C(=O)N[C@@H]1C[C@H](N)[C@@H](O[C@H]2O[C@H](CN)CC[C@H]2N)[C@H](O)[C@H]1O[C@H]1O[C@H](CO)[C@@H](O)[C@H](N)[C@H]1O [Habekacin, 1-N-[(S)-4-amino-2-hydroxybutyryl]-3',4'-dideoxykanamycin B, reference compound]
50 µg/mL: MIC (Providencia 2991) | MIC (Proteus rettgeri GN311) | MIC (Serratia marcescens) | MIC (Serratia 4)
< 0.2 µg/mL: MIC (Bacillus anthracis)
1.56 µg/mL: MIC (Salmonella typhi T-63) | MIC [13] | MIC ([16]; FDA16, 18 h) | MIC (Sarcina lutea PCI 1001; PCI1001, 18 h) | MIC ([23]; PCI602, 18 h) | MIC ([25]; ATCC10702, 18 h)
25 µg/mL: MIC [2] | MIC [7] | MIC (Providencia Pv 16) | MIC [18]
0.78 µg/mL: MIC (Proteus vulgaris OX19) | MIC [5] | MIC [19]
3.13 µg/mL: MIC [4, 33] | MIC (Escherichia coli K-12) | MIC [8] | MIC [9] | MIC [10] | MIC [11] | MIC (Escherichia coli NIHJ) | MIC [20, 29] | MIC [21, 33] | MIC (Escherichia coli W677; [30]) | MIC (Escherichia coli JR255) | MIC ([26]; TI13, nutrient agar, 37° C., 18 hours incubation, read-out: MIC)
> 100 µg/mL: MIC [1] | MIC (Serratia SOU)
0.39 µg/mL: MIC [15] | MIC [17]
6.25 µg/mL: MIC [6] | MIC [14, 34] | MIC ([22]; GN315, 18 h) | MIC [24] | MIC [27]
100 µg/mL: MIC (Escherichia coli K-12 R5)
12.5 µg/mL: MIC [3]
